Results published in US20210163443A1, “Febrifugine Derivatives” (BRISTOL-MYERS SQUIBB COMPANY, priority 2019, published 2021).
Like-named read-outs stand apart in the source and are kept apart here.

Tests used:
[1] = in vivo; cited from earlier work
[2] = cited from earlier work
[3] = biological target: T1, human ProRS (prolyl tRNA synthetase moiety of glutamyl prolyl tRNA synthetase, EPRS) (Homo sapiens, UniProt P07814); experiment: Assay for inhibitors of prolyl tRNA synthetase activity (ProRS assay, labeled proline incorporation); type: biochemical
T1 construct: The prolyl tRNA synthetase moiety (ProRS) in the cDNA of glutamyl prolyl tRNA synthetase was subcloned; 6xHis (N, cleaved yes); made in house; host or cells: E. coli BL21 (DE3)
T1 sequence (P07814 1007-1512 limits assumed): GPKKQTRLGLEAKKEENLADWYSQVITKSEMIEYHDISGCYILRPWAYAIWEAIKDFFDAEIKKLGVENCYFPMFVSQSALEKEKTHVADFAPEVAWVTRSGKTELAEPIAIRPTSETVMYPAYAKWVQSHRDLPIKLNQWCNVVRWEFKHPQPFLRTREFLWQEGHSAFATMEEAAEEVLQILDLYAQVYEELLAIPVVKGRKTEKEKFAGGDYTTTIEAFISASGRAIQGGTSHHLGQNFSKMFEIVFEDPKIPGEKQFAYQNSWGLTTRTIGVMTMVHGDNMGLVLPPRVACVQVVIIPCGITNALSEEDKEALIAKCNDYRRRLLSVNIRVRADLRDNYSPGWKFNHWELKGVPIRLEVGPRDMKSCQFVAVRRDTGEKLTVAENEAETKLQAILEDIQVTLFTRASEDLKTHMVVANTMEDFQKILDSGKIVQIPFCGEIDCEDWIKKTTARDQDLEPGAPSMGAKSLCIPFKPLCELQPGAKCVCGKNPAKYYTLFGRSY
Method in brief: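 Biotinylated N-His-tagged human ProRS (20 nM) from E. coli, with Tris-Cl pH 7.5, 2 mM DTT, 5 mM ATP, MgCl2, bovine tRNA; compounds (10 μM to 0.5 nM) preincubated 15 min on ice. Started with proline (3.96 μM unlabeled, 1.04 μM labeled), 10 min at 37 °C, TCA-precipitated and scintillation-counted; IC50 from 4-parameter fit.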

[4] = test system: Rat hepatocytes; experiment: GSH trapping assay in rat hepatocytes; type: in vitro ADME; conditions: 30 μM, 24 hr incubation, LC-MS
Description: Rat hepatocytes were isolated from male Sprague-Dawley rats (Vivo Biotech Ltd, HYD, India), weighing 230 to 280 g by the two step collagenase perfusion method (seglen, 1976; Berry M N and Friend D S.1969). Rat hepatocytes were cultured in Dulbecco's Modified Eagle's Medium (DMEM, Gibco®, USA) supplemented with 10^−6 M dexamethasone (Gibco®), 5% fetal bovine serum (Gibco®) and cocktail-A mix (CM3000, Gibco®) containing HEPES buffer (PH 7.4), GlutaMAX™, human recombinant insulin, penicillin and streptomycin. Initial cell viability assessed by Trypanblue stain 0.4% (Sigma, UK) and viability more than 80% were considered for culturing. Hepatocytes were seeded in 96 well type-I collagen coated plates (Gibco®) at 4×10^4 cells/well in 100 μL of the culture medium and incubated at 37° C. in 5% CO2 and 95% relative humidity (RH) for 4 hr of cell attachment.
After 4 hr incubation, rat hepatocytes were washed twice with pre-warmed (37° C.) DMEM incubation medium supplemented with 10^−7 M dexamethasone and cell maintenance cocktail-B (CM4000, Gibco®) solution to remove unattached cells. Post washing hepatocytes were treated with test and reference compounds in incubation medium at single concentration (30 μM) in duplicate and incubate further for 24 hr at 37° C. with 5% CO2 and 95% RH. The final concentration of DMSO in medium was 0.5%.
Post 24 hr incubation, hepatocyte samples were quenched with equal volumes of acetonitrile containing 0.1% formic acid followed by vortex mix, sonicate and centrifuge at 12000 rpm at room temperature for 5 min. Supernatant samples were analyzed for GSH adducts on a C18 reverse-phase column (Xbridge™ Shield, C18, 4.6×150 mm, 3.5 μm) with solvent A (10 mM ammonium formate and 0.1% formic acid/water) and solvent B (0.1% formic acid/acetonitrile).
The column was eluted with 5% B for 5 min and then with a linear gradient to 20% B over 10 min and it was maintained up to 15 min, then it was increased linearly to 40% B up to 27 min and then increase to 90% B up to 29 min, and then equilibrate back the column to 5% B up to 33 min at a flow rate of 0.6 ml/min. The column effluent was directed into the ESI source of a LTQ Velos Orbitrap mass spectrometer (Thermo Fisher Scientific, San Jose, Calif.). The ESI conditions were as follows: sheath gas flow rate, 40 arbitrary units; auxiliary gas, 30 arbitrary units; spray voltage, 4.5 kV; capillary temperature, 230° C.; capillary voltage, 30 V; and tube lens offset, 25 V. Data were acquired in positive ion mode using Xcalibur software (Thermo Fisher Scientific) with one full scan followed by two data-dependent scans of the most intense and the second most intense ions. During the data interpretation the characteristic fragments of neutral loss of glycine (75.0320 Da), pyroglutamic acid (129.0426 Da) and loss of neutral moiety GSH (307.0838 Da) and/or a specific fragment of (GSH+H)^+ (m/z 308.0911) were monitored. Finally the fragments ions with m/z e.g. 179.0485, 177.0328 and 162.0219 Da, which were derived from the glutathione moiety were used to report GSH positive results.

[5] = human ProRS 20 nM, 10 min at 37° C., read-out: EPRS IC50

IC50 [3, 5] | GSH adduct formation [4] | Structure (SMILES) | anti-fibrotic properties [1] | toxicity in humans [2] | IC50 [3]
– | – | O=C(CC1NCCCC1O)Cn1cnc2cc(Br)c(Cl)cc2c1=O (centres unmarked) [Halofuginone, 7-bromo-6-chloro-3-[3-(3-hydroxy-2-piperidinyl)-2-oxopropyl]-4(3H)-quinazolinone] | anti-fibrotic properties in vivo | nausea, vomiting, and fatigue, and possibly bleeding complications | –
83 nM | Negative | CCc1cc(Br)cc2c(=O)n(C[C@@H](O)C[C@H]3NCCC[C@@H]3O)cnc12.Cl [Example 48, 6-Bromo-8-ethyl-3-{(S)-2-hydroxy-3-[(2R,3S)-3-hydroxypiperidin-2-yl]propyl}quinazolin-4(3H)-one hydrochloride] | – | – | –
302 nM | Negative | Cl.O=c1c2c(F)cccc2ncn1C[C@@H](O)C[C@H]1NCCC[C@@H]1O [Example 40, 5-Fluoro-3-{(S)-2-hydroxy-3-[(2R,3S)-3-hydroxypiperidin-2-yl]propyl}quinazolin-4(3H)-one hydrochloride] | – | – | –

Structure (SMILES) | IC50 [3, 5] | GSH adduct formation [4] | anti-fibrotic properties [1] | toxicity in humans [2] | IC50 [3]
Cc1cc2ncn(C[C@@H](O)C[C@H]3NCCC[C@@H]3O)c(=O)c2cc1Cl.Cl [Example 31, 6-Chloro-3-{(S)-2-hydroxy-3-[(2R,3S)-3-hydroxypiperidin-2-yl]propyl}-7-methylquinazolin-4(3H)-one hydrochloride] | – | Negative (detected by mass only) | – | – | 17 nM
